Measurements: ChEMBL document CHEMBL3734669, “Δ(5)-Cholenoyl-amino acids as selective and orally available antagonists of the Eph-ephrin system” (Eur J Med Chem, 2015)
Values after ≈ are worked out from the molar mass of the structure shown. Blank lines part the entries; values can stand above or below the molecule they belong to. Active and inactive are the calls of the source. No cut-off for these calls is given here.

Assays:
[1] = Cytotoxicity against human PC3 cells at 10 to 30 uM after 2 hrs by LDH release assay; type: cell-based; settings: pc-3, 2 h
Ephrin type-A receptor 2 [2] = molecular target: T1, Ephrin type-A receptor 2 (Homo sapiens, UniProt P29317); assay: Displacement of biotinylated-ephrin-A1-Fc from EphA2-Fc receptor (unknown origin) preincubated for 1 hr followed by biotinylated-ephrin-A1-Fc addition measured after 4 hrs by ELISA
Ephrin type-A receptor 2 [3] = molecular target: T1, Ephrin type-A receptor 2; assay: Displacement of biotinylated-ephrin-A1 from EphA2 receptor (unknown origin) up to 100 uM preincubated for 1 hr followed by biotinylated-ephrin-A1-Fc addition measured after 4 hrs by ELISA
[4] = molecular target: T2, G-protein coupled bile acid receptor 1 (Homo sapiens, UniProt Q8TDU6); assay: Agonist activity at TGR5 (unknown origin) assessed as cAMP level; type: functional
T2 sequence (Q8TDU6 whole entry): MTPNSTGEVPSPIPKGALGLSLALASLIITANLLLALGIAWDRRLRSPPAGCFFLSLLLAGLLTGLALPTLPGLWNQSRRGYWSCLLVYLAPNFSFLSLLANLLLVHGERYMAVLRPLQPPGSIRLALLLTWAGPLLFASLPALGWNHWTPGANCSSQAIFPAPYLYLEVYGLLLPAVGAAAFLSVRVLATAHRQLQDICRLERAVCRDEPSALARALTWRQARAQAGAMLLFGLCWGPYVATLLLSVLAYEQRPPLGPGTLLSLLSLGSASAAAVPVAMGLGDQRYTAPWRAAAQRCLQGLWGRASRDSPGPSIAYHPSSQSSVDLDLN

[5] = molecular target: T3, Nuclear receptor subfamily 1 group I member 2 (Homo sapiens, UniProt O75469); assay: Activation of human recombinant PXR up to 10 uM by alphascreen method
T3 sequence (O75469 whole entry): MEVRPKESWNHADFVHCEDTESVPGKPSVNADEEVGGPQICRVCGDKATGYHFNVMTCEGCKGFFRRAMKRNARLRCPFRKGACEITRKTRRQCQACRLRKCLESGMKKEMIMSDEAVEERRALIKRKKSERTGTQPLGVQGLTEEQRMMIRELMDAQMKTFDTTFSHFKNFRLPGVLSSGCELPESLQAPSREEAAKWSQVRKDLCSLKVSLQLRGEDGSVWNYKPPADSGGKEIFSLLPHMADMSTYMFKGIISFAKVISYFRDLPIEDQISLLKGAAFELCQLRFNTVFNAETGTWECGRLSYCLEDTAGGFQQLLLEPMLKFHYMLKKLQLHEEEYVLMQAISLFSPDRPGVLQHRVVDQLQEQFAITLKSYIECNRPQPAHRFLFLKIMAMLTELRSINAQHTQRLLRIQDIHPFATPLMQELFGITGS

[6] = Cmax in mouse at 30 mg/kg, po administered as single dose by HPLC-MS analysis; type: ADME, organism-based; design: dose 30 mg/kg, route oral; settings: in vivo
[7] = AUC (0 to t) in mouse at 30 mg/kg, po administered as single dose by HPLC-MS analysis; type: ADME, organism-based; settings: in vivo
[8] = Metabolic stability in mouse plasma assessed as compound remaining at 1 uM after 24 hrs by HPLC-ESI-MS/MS analysis; type: ADME, cell-free; settings: read-out: Stability
[9] = n-octanol-water distribution coefficient, log D of the compound at pH 7.4 after 4 hrs by shake-flask method; type: physicochemical
[10] = Metabolic stability in mouse liver S9 fractions assessed as compound remaining at 1 uM after 1 hr by HPLC-ESI-MS/MS analysis in presence of NADPH regenerating system; type: ADME, subcellular, Liver S9 fraction; settings: read-out: Stability
[11] = Kinetic solubility of the compound in NaCl solution at 25 deg C after 2 hrs by HPLC-ESI-MS/MS analysis; type: physicochemical; settings: read-out: Kinetic_solubility

T1 sequence (P29317 whole entry): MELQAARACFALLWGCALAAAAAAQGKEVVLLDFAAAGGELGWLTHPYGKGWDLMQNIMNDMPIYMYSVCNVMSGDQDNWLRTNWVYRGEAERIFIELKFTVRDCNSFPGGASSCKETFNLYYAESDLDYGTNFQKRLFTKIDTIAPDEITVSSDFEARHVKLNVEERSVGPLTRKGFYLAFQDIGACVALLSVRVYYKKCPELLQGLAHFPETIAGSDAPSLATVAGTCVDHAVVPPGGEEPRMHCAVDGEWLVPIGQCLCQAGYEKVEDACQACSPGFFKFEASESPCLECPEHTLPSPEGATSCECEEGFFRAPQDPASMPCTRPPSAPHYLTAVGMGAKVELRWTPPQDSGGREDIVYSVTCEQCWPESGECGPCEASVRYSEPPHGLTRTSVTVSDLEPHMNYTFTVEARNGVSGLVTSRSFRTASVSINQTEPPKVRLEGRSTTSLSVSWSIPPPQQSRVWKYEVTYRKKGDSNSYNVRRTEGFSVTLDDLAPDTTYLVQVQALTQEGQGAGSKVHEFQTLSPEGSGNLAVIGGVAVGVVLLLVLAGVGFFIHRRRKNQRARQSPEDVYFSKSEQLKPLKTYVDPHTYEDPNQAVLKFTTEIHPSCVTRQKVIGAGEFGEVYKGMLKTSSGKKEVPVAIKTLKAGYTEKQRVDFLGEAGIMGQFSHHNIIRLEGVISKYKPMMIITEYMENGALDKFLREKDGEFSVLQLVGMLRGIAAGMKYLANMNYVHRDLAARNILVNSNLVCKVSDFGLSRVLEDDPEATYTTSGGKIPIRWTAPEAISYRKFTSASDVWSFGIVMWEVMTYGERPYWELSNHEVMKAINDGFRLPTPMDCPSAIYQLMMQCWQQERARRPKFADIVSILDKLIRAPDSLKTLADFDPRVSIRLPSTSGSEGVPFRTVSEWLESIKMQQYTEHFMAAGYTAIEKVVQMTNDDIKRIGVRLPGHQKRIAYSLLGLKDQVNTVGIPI

SMILES: C[C@H](CCC(=O)N[C@@H](Cc1c[nH]c2ccc(O)cc12)C(=O)O)[C@H]1CC[C@H]2[C@@H]3CC=C4C[C@@H](O)CC[C@]4(C)[C@H]3CC[C@]12C
Activity [1]: Non-toxic

SMILES: C[C@H](CCC(=O)N[C@H](CC(=O)O)Cc1c[nH]c2ccccc12)[C@H]1CC[C@H]2[C@@H]3CC[C@@H]4C[C@H](O)CC[C@]4(C)[C@H]3CC[C@]12C
EC50 [4]: 4 µM
Activity [5]: 30%
Cmax [6]: 14 nM
AUC(0-t) [7]: 21.2 ng·h/mL
remaining at 24 h, 1 µM [8]: 98.3%
logD at 4 h [9]: 4.9
remaining at 1 h, 1 µM [10]: 56%
solubility kinetic at 2 h [11]: 31.8 µM (≈ 18.3 µg/mL)

SMILES: COC(=O)[C@H](Cc1c[nH]c2ccccc12)NC(=O)CC[C@@H](C)[C@H]1CC[C@H]2[C@@H]3CC=C4C[C@@H](O)CC[C@]4(C)[C@H]3CC[C@]12C
inhibition (Ephrin type-A receptor 2 [3]): inactive

SMILES: C[C@H](CCC(=O)O)[C@H]1CC[C@H]2[C@@H]3CC=C4C[C@@H](O)CC[C@]4(C)[C@H]3CC[C@]12C
IC50 (Ephrin type-A receptor 2 [2]): 39.8 µM

Continued, values first:

IC50 (Ephrin type-A receptor 2 [2]): > 100 µM
SMILES: C[C@H](CCC(=O)N[C@@H](Cc1ccccc1)C(=O)O)[C@H]1CC[C@H]2[C@@H]3CC=C4C[C@@H](O)CC[C@]4(C)[C@H]3CC[C@]12C

inhibition (Ephrin type-A receptor 2 [3]): inactive
SMILES: CSCC[C@H](NC(=O)CC[C@@H](C)[C@H]1CC[C@H]2[C@@H]3CC=C4C[C@@H](O)CC[C@]4(C)[C@H]3CC[C@]12C)C(=O)O

inhibition (Ephrin type-A receptor 2 [3]): inactive
SMILES: C[C@H](CCC(=O)NCC(=O)O)[C@H]1CC[C@H]2[C@@H]3CC=C4C[C@@H](O)CC[C@]4(C)[C@H]3CC[C@]12C

IC50 (Ephrin type-A receptor 2 [2]): > 100 µM
SMILES: C[C@H](CCC(=O)N[C@@H](CO)C(=O)O)[C@H]1CC[C@H]2[C@@H]3CC=C4C[C@@H](O)CC[C@]4(C)[C@H]3CC[C@]12C
